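Grown in 96-well plates, cells were treated for 48 hours with each compound at five concentrations. Insufficient inhibition: endpoint recorded as highest concentration tested. At the GI50, growth is halved.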 Calls of active or inactive are those of the source. Cut-off read from the data, not from the text of the source: active = GI50 up to about 1.1 µM and inactive = higher.
How the values were obtained:
Assay in all cases: NCI anticancer screen, dose series, 48 h
HCT-116 = system: HCT-116
NCI-H23 = system: NCI-H23
SK-OV-3 = system: SK-OV-3
OVCAR-3 = system: OVCAR-3
TK-10 = system: TK-10
A549 = system: A549
M14 = system: M14
K562 = system: K562
SR = system: SR
SN12C = system: SN12C
UACC-257 = system: UACC-257
SK-MEL-28 = system: SK-MEL-28
DMS-114 = system: DMS-114
XF498 = system: XF498
COLO 205 = system: COLO 205
CAKI-1 = system: CAKI-1
HCT-15 = system: HCT-15
786-0 = system: 786-0
UACC-62 = system: UACC-62
EKVX = system: EKVX
Malme-3M = system: Malme-3M
MOLT-4 = system: MOLT-4
NCI-H226 = system: NCI-H226
KM-20L2 = system: KM-20L2
SF-539 = system: SF-539
SNB-78 = system: SNB-78
CCRF-CEM = system: CCRF-CEM
LOX IMVI = system: LOX IMVI
SF-295 = system: SF-295
NCI-H522 = system: NCI-H522
M19-MEL = system: M19-MEL
ACHN = system: ACHN
SK-MEL-2 = system: SK-MEL-2
OVCAR-5 = system: OVCAR-5
UO-31 = system: UO-31
OVCAR-4 = system: OVCAR-4
HL-60 = system: HL-60
SW-620 = system: SW-620
RPMI-8226 = system: RPMI-8226
SK-MEL-5 = system: SK-MEL-5
SNB-19 = system: SNB-19
U-251 = system: U-251
HOP-62 = system: HOP-62
KM12 = system: KM12
IGROV-1 = system: IGROV-1
OVCAR-8 = system: OVCAR-8
HCC 2998 = system: HCC 2998
MCF7 = system: MCF7
A498 = system: A498
MDA-MB-435 = system: MDA-MB-435
RXF 393 = system: RXF 393
T47D = system: T47D
SNB-75 = system: SNB-75
BT-549 = system: BT-549
SF-268 = system: SF-268
DU-145 = system: DU-145
PC-3 = system: PC-3
NCI-H460 = system: NCI-H460
NCI/ADR-RES = system: NCI/ADR-RES
Hs-578T = system: Hs-578T
MDA-MB-231 = system: MDA-MB-231
MDA-N = system: MDA-N
HOP-92 = system: HOP-92
HT-29 = system: HT-29

Measured: GI50

CCOC(=O)/C(=C\c1ccc(OCc2ccccc2)c(OC)c1)C(=O)c1ccccc1
20.4 µM: HCT-15
inactive: HCT-116 17.5 µM | NCI-H23 19.3 µM | SK-OV-3 64.9 µM | OVCAR-3 22 µM | TK-10 27.5 µM | A549 > 10 µM | M14 15 µM | K562 19.9 µM | SR 33 µM | SN12C 23 µM | UACC-257 > 10 µM | SK-MEL-28 14.6 µM | DMS-114 19.7 µM | XF498 18.1 µM | COLO 205 30.8 µM | CAKI-1 24.7 µM | 786-0 20 µM | UACC-62 23.3 µM | EKVX 27.4 µM | Malme-3M 16.7 µM | MOLT-4 18.3 µM | NCI-H226 25.7 µM | KM-20L2 19.5 µM | SF-539 16.7 µM | SNB-78 31.3 µM | CCRF-CEM 23.6 µM | LOX IMVI 15.9 µM | SF-295 22.3 µM | NCI-H522 17.7 µM | M19-MEL 22.1 µM | ACHN 18.1 µM | SK-MEL-2 19.6 µM | OVCAR-5 20.7 µM | UO-31 18.1 µM | OVCAR-4 36 µM | HL-60 20.1 µM | SW-620 18.4 µM | RPMI-8226 27.6 µM | SK-MEL-5 17.9 µM | SNB-19 27.7 µM | U-251 17.3 µM | HOP-62 18.9 µM | KM12 19.5 µM | IGROV-1 29.7 µM | OVCAR-8 > 10 µM | HCC 2998 36.1 µM

CN1CCN([C@H]2C[C@H]3[C@@H]4CC=C5C[C@@H](O)CC[C@]5(C)[C@H]4CC[C@]3(C)[C@H]2O)CC1
> 42.3 µM: HCT-15
inactive: HCT-116 30.7 µM | MCF7 > 45.6 µM | A498 > 100 µM | NCI-H23 > 100 µM | SK-OV-3 > 100 µM | MDA-MB-435 16.9 µM | RXF 393 16.9 µM | T47D > 47.4 µM | OVCAR-3 > 42.1 µM | TK-10 > 100 µM | A549 > 100 µM | M14 17.5 µM | SNB-75 > 49.2 µM | K562 19 µM | SR 25.8 µM | SN12C > 100 µM | BT-549 > 81.8 µM | UACC-257 > 49 µM | SK-MEL-28 27.4 µM | COLO 205 > 67.8 µM | CAKI-1 > 100 µM | SF-268 > 41.7 µM | 786-0 17.8 µM | UACC-62 > 44 µM | DU-145 > 100 µM | EKVX > 100 µM | Malme-3M > 43.2 µM | MOLT-4 49.7 µM | NCI-H226 > 100 µM | SF-539 26.2 µM | CCRF-CEM 25 µM | LOX IMVI > 43.4 µM | SF-295 > 78.3 µM | NCI-H522 > 100 µM | ACHN > 100 µM | SK-MEL-2 > 83.9 µM | PC-3 > 51.2 µM | OVCAR-5 > 47.5 µM | UO-31 > 100 µM | OVCAR-4 > 41.1 µM | HL-60 16.8 µM | NCI-H460 > 42.7 µM | NCI/ADR-RES > 87.7 µM | Hs-578T > 100 µM | MDA-MB-231 > 48.3 µM | SW-620 20.7 µM | RPMI-8226 23.9 µM | MDA-N 19 µM | SK-MEL-5 35.5 µM | SNB-19 > 45.5 µM | U-251 17.1 µM | HOP-62 > 51.9 µM | KM12 > 53.8 µM | HOP-92 > 100 µM | IGROV-1 > 90.8 µM | OVCAR-8 > 42.8 µM | HT-29 7.29 µM | HCC 2998 44.2 µM
